Experimental data: patent US20260130906A1, “THERAPY COMPRISING ANTI-CD19 ANTIBODY AND SUMO-ACTIVATING ENZYME INHIBITOR” (TAKEDA PHARMACEUTICAL COMPANY LIMITED, priority 2021, published 2026)

How the values were obtained:
[1] = system: SUMO-activating enzyme and SUMOylation; assay: Inhibition of SAE and SUMOylation in cultured tumor cell lines; assay type: cell-based; settings: cultured mouse and human tumor cell lines
Description: (§1) SAE inhibitors, as disclosed herein, are described, for example, in US 2016/0009744 and U.S. Pat. No. 9,695,154 which is hereby incorporated by reference in its entirety. They may be prepared by methods known to one skilled in the art and/or according to the methods described in US 2016/0009744 and U.S. Pat. No. 9,695,154 . . . . Central to the mechanism of action of useful SAE inhibitors, such as Compound I-263a, in combinations and methods of the present disclosure is production of type 1 IFNs and induction of an innate immune response with activation of both natural killer (NK) cells and macrophages.

[2] = target: SUMO-activating enzyme (Homo sapiens, UniProt Q9UBT2); assay: Biochemical assays of SUMO-activating enzyme inhibition
Description: as §1

SUMO-activating enzyme, sequence (Q9UBT2 whole entry): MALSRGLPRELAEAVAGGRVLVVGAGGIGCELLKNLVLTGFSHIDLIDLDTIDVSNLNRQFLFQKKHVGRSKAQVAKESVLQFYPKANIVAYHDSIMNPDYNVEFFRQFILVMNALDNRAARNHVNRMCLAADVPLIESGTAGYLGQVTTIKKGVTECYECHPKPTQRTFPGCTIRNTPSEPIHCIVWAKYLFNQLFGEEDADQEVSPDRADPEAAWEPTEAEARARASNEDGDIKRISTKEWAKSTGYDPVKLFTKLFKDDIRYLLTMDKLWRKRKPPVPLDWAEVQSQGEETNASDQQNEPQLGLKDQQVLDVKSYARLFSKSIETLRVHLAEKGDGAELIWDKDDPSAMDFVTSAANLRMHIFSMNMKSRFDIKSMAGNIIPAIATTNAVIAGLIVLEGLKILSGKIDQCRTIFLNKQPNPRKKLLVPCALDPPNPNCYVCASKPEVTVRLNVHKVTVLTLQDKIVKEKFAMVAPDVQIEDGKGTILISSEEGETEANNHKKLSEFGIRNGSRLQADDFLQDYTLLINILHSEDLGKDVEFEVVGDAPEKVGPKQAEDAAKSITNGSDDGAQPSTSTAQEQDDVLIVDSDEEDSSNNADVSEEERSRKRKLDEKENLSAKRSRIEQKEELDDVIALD
SUMO-activating enzyme, sequence (Q9UBE0 whole entry partner): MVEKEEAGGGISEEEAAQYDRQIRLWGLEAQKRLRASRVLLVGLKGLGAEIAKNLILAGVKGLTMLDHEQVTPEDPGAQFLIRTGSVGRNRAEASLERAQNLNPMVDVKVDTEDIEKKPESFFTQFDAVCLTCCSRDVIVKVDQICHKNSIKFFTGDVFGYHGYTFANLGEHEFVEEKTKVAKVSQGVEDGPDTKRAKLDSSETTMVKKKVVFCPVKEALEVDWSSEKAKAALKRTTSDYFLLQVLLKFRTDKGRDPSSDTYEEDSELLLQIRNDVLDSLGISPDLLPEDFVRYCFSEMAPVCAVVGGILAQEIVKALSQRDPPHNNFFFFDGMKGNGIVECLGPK
SUMO-activating enzyme, sequence (P63165 1-97 partner limits assumed): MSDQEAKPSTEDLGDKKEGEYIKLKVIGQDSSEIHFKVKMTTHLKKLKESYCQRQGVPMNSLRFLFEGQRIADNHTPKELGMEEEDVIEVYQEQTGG

Cc1sc(C(=O)c2cncnc2N[C@@H]2C[C@H](COS(N)(=O)=O)[C@@H](O)C2)cc1[C@@H]1NCCc2ccc(Cl)cc21 [Compound I-263a, [(1R,2S,4R)-4-{[5-({4-[(1R)-7-chloro-1,2,3,4-tetrahydroisoquinolin-1-yl]-5-methyl-2-thienyl}carbonyl)pyrimidin-4-yl]amino}-2-hydroxycyclopentyl]methyl sulfamate]
inhibition of SUMO-activating enzyme and SUMOylation [1]: Selective and potent inhibition | inhibition of SUMO-activating enzyme activity ([2]; mechanism-based, covalent adduct with SUMO): potently inhibits enzyme activity | selectivity for SUMO-activating enzyme ([2]; over ubiquitin-activating enzyme, Nedd8-activating enzyme, autophagy related 7 enzyme): Strong selectivity
